In EP0452067A2, “Oligosaccharide compounds and preparation thereof” (GENZYME CORPORATION, priority 1990, dated 1991):

Key:
[1] = target: T1, Pancreatic Amylase (Homo sapiens, UniProt P04746); test: Cleavage pattern of substrates on hydrolysis with pancreatic amylase
T1 sequence (P04746 16-511): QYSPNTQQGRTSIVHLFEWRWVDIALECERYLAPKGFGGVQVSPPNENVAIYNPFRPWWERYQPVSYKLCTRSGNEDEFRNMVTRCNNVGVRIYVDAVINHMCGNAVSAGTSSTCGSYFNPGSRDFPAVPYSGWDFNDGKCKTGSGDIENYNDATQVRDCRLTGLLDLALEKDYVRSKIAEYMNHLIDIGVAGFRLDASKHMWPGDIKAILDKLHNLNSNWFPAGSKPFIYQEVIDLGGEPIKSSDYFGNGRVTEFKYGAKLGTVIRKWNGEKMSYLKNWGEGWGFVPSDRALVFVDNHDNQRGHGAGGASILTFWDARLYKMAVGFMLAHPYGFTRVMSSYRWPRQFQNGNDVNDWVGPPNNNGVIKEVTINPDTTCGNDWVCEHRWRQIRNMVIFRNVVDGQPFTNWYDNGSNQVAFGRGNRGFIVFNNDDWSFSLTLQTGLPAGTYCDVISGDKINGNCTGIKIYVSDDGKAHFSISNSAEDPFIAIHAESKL

[2] = tested on: α-amylase; test: Determination of kinetic and binding values of α-amylase substrates; type: biochemical; details: for Km: 50 mM PIPES pH 7.0, 50 mM NaCl, 5 mM CaCl₂, glucoamylase and maltase, 27°C, corrected for contaminating unblocked substrate
Experimental: All reactions were carried out in 50 mM PIPES buffer (pH 7.0) containing 50 mM NaCl, 5 mM CaCl₂, 10 units glucoamylase and 25 units maltase at 27°C. Each substrate concentration was run in duplicate and at least eight concentrations were examined for each substrate. Data from the reaction progress curves were fit to the Michaelis-Menten equation using Marquardt analysis. The Km values were corrected for contaminating unblocked substrate. The values V and K for the G₇ substrates are the average of two experiments. The error in the kinetic parameters from each experiment was less than 5% from the average reported.

[3] = tested on: pancreatic and salivary α-amylase; test: Cleavage pattern, both amylases; type: biochemical; details: range over pancreatic and salivary α-amylase

Row | Structure (SMILES) | Cleavage Position (% of total) G 1/2 [1] | Cleavage Position (% of total) G 2/3 [1] | Cleavage Position (% of total) G 3/4 [1] | Cleavage Position (% of total) G 4/5 [1] | Total Hydrolysis (%) [1] | Vmax, faster than the Bz-G₇-PNP ([2]; relative to Bz-G₇-PNP) | cleaved between glucoses 3 and 4 [3] | Cleavage Position (% of total) G 5/6 [1] | Km [2] | cleaved between glucoses 2 and 3 [3] | V/K greater than that of the Bz-G₅-PNP ([2]; relative to Bz-G₅-PNP) | cleaved between glucose units 1-2 [3]
1 | CC(C)(C)[Si](C)(C)OC[C@H]1O[C@H](O[C@H]2[C@H](O)[C@@H](O)[C@@H](O[C@H]3[C@H](O)[C@@H](O)[C@@H](O[C@H]4[C@H](O)[C@@H](O)[C@@H](O[C@H]5[C@H](O)[C@@H](O)[C@@H](O[C@H]6[C@H](O)[C@@H](O)[C@@H](O[C@H]7[C@H](O)[C@@H](O)[C@@H](Oc8ccc([N+](=O)[O-])cc8)O[C@@H]7CO)O[C@@H]6CO)O[C@@H]5CO)O[C@@H]4CO)O[C@@H]3CO)O[C@@H]2CO)[C@H](O)[C@@H](O)[C@@H]1O [Substrate 1, 6-0-t-butyldimethylsilyl-4-nitrophenyl-α-D-maltoheptaoside] | 1.1 % of total | 13.3 % of total | 65.6 % of total | 19.9 % of total | 69.9% | 46% | 66 - 67% |  |  |  |  | 
2 | O=[N+]([O-])c1ccc(O[C@H]2O[C@H](CO)[C@@H](O[C@H]3O[C@H](CO)[C@@H](O[C@H]4O[C@H](CO)[C@@H](O[C@H]5O[C@H](CO)[C@@H](O[C@H]6O[C@H](CO)[C@@H](O[C@H]7O[C@H](CO)[C@@H](O[C@H]8O[C@@H]9COC(c%10ccccc%10)O[C@H]9[C@H](O)[C@H]8O)[C@H](O)[C@H]7O)[C@H](O)[C@H]6O)[C@H](O)[C@H]5O)[C@H](O)[C@H]4O)[C@H](O)[C@H]3O)[C@H](O)[C@H]2O)cc1 (stereo partly drawn) [Substrate 2, 4,6-0-benzylidene-4-nitrophenyl-α-D-maltoheptaoside] | 4.0 % of total | 63.1 % of total | 18.9 % of total |  | 15.1% |  |  | 13.6 % of total | 92 µM | 63 - 74% |  | 
3 | CC(C)(C)[Si](C)(C)OC[C@H]1O[C@H](O[C@H]2[C@H](O)[C@@H](O)[C@@H](O[C@H]3[C@H](O)[C@@H](O)[C@@H](O[C@H]4[C@H](O)[C@@H](O)[C@@H](O[C@H]5[C@H](O)[C@@H](O)[C@@H](Oc6ccc([N+](=O)[O-])cc6)O[C@@H]5CO)O[C@@H]4CO)O[C@@H]3CO)O[C@@H]2CO)[C@H](O)[C@@H](O)[C@@H]1O [Substrate 3, 6-0-t-butyldimethylsilyl-4-nitrophenyl-α-D-maltopentaoside] | 59.4 % of total | 40.6 % of total |  |  | 31.6% |  |  |  | 87 µM | 40 - 60% | 19% | 40 - 60%
4 | O=[N+]([O-])c1ccc(O[C@H]2O[C@H](CO)[C@@H](O[C@H]3O[C@H](CO)[C@@H](O[C@H]4O[C@H](CO)[C@@H](O[C@H]5O[C@H](CO)[C@@H](O[C@H]6O[C@@H]7COC(c8ccccc8)O[C@H]7[C@H](O)[C@H]6O)[C@H](O)[C@H]5O)[C@H](O)[C@H]4O)[C@H](O)[C@H]3O)[C@H](O)[C@H]2O)cc1 (stereo partly drawn) [Substrate 4, 4,6-0-benzylidene-4-nitrophenyl-α-D-maltopentaoside] | 2.5 % of total | 19.4 % of total | 78.1 % of total |  | 42.9% |  | 78 - 84% |  | 183 µM |  |  | 
